In paper PMC10539350 (Scientific Reports, 2023):
In brackets after ≈: the same amount, converted by molar mass. Read-outs that look alike come from different tables or passages of the source.

What was measured:
M. tuberculosis H37Rv = test: tuberculostatic activity, broth microdilution MIC (Alamar blue); assay type: cell-based, Mycobacterium tuberculosis; conditions: for MIC: Mycobacterium tuberculosis, 504 h, M. tuberculosis H37Rv, read-out: Minimal inhibitory concentration; for activity in words: toward standard and susceptible strains
[1] = test system: M. tuberculosis SIR Ciprofloxacin susceptible 168/22; test: as above; assay type: cell-based, Mycobacterium tuberculosis; conditions: for MIC: Mycobacterium tuberculosis, read-out: Minimal inhibitory concentration; for activity in words: susceptible bacteria
[2] = IAM-HPLC affinity to phospholipids (CHI protocol); assay type: physicochemical; conditions: for CHIIAM: IAM column, pH 7.4, ACN gradient; for log kIAM: 0.045*CHIIAM+0.42
physchem = assay type: physicochemical; conditions: for CHIC18: C18 column, pH 7.4, ACN gradient; for chromatographic logD: pH 7.4
Excerpt: For HPLC analyses Prominence-1 LC-2030C 3D HPLC system (Shimadzu, Japan) equipped with a DAD detector and controlled by LabSolution system (version 5.90 Shimadzu, Japan) was used. Two different chromatography columns packed with surface-modified silica were utilized in this study: • Octyldecylsilane (C18 Hypersil GOLD™; 50 mm × 4.6 mm; 5.0 µm; Thermo Scientific, USA) • Immobilized artificial membrane (IAM.PC.DD2; 10 × 4.6 mm × 10.0 µm; Regis Technologies; USA).
Both columns were equipped with guard precolumn containing the same silica-modified bed as the main column. All measurements were carried out using the protocol proposed by Valko[19] and co-workers and adopted in our laboratory. Briefly, methods developed by Valko offered the determination of Chromatographic Hydrophobicity Index (CHI) indices using one gradient elution experiment. Ammonium acetate buffer (50 mM, pH 7.4) and acetonitrile (ACN) were used as the mobile phase at a 1.5 mL/min flow rate. The gradient range varies depending on the column type: • For C18 starting from 2 to 98% ACN in 5.25 min. The maximum concentration of ACN was applied for 1.75 min. • For IAM starting from 0 to 85% ACN in 5.25 min. The maximum concentration of ACN was used for 0.5 min.
During the chromatographic separation, the temperature was stable at 30 °C. […] The injected volume was 10 μL, whereas the concentration of solutes was at level 100 μg/mL. All studied compounds were dissolved in DMSO. Each chromatographic experiments run in triplicate. […] Retention times for studied molecules and reference standards are collected in supplementary materials, Tables S1, S2 and S3, respectively.
Next, the CHIC18 values were converted into lipophilicity indices CHI log D using Eq. […]

[3] = cited from earlier work
[4] = cited from earlier work; remark: listed apart in the source
[5] = 21 days 37 °C, Middlebrook 7H9 + OADC
[6] = calibration set on the IAM column, CHI index, Table S3 ref 19
[7] = calibration set on the C18 column, literature CHI index, Table S2 ref 19
[8] = determined in an earlier study ref 15

Row | SMILES | MIC (M. tuberculosis H37Rv; [5]) [µg/mL] | MIC [1] [µg/mL] | CHIIAM [2] | CHIC18 (physchem) | chromatographic logD (physchem) | log kIAM [2] | also measured
1 | Cc1ccc(C(C)C)c(OC(=O)CN2CCN(c3cc4c(cc3F)c(=O)c(C(=O)O)cn4C3CC3)CC2)c1 [Compound 10] | 1 | 1 (≈ 1.92 µM) | 42.88 | 111.26 | 4.37 | – | –
2 | CCCCC(=O)c1ccccc1 [Valerophenone] | – | – | – | – | – | – | CHIIAM [3, 6]: 37.3; CHIC18 [4, 7]: 96,2
3 | Cc1ccc(C(C)C)c(OC(=O)CCCOC(=O)c2cn(C3CC3)c3cc(N4CCN(CCCC(=O)Oc5cc(C)ccc5C(C)C)CC4)c(F)cc3c2=O)c1 [Compound 15] | 64 | 64 (≈ 83.3 µM) | 45.54 | 135.98 | 5.67 | 2.47 | activity in words (M. tuberculosis H37Rv): not active
4 | CC[C@@H](CO)NCCN[C@@H](CC)CO [Ethambutol, reference compound] | 0.25 | 0.5 (≈ 2.45 µM) | – | – | – | – | –
5 | O=C(O)c1cn(C2CC2)c2cc(N3CCNCC3)c(F)cc2c1=O [Ciprofloxacin, reference compound] | – | – | – | – | – | – | CHIIAM [3, 8]: 19.70; log kIAM [3, 8]: 1.31; CHIC18 [4, 8]: 35.61
6 | c1ccc2[nH]cnc2c1 [Benzimidazole] | – | – | – | – | – | – | CHIC18 [4, 7]: 34,3
7 | Cc1ccc(C(C)C)c(OC(=O)CCCCCN2CCN(c3cc4c(cc3F)c(=O)c(C(=O)O)cn4C3CC3)CC2)c1 [Compound 14] | 0.5 | 0.5 (≈ 0.866 µM) | 50.29 | 121.48 | 4.91 | 2.68 | –
8 | Cc1ccc(C(C)C)c(OC(=O)CCCCCOC(=O)c2cn(C3CC3)c3cc(N4CCN(CCCCCC(=O)Oc5cc(C)ccc5C(C)C)CC4)c(F)cc3c2=O)c1 [Compound 16] | 4 | 4 (≈ 4.85 µM) | 49.33 | 144.84 | 6.14 | 2.64 | –
9 | CCCCCCC(=O)c1ccccc1 [Heptanophenone] | – | – | – | – | – | – | CHIIAM [3, 6]: 45.7
10 | CO[C@H]1/C=C/O[C@@]2(C)Oc3c(C)c(O)c4c(O)c(c(/C=N/N5CCN(C)CC5)c(O)c4c3C2=O)NC(=O)/C(C)=C\C=C\[C@H](C)[C@H](O)[C@@H](C)[C@@H](O)[C@@H](C)[C@H](OC(C)=O)[C@@H]1C [Rifampicin, reference compound] | 0.5 | 64 (≈ 77.8 µM) | – | – | – | – | activity in words [1]: poor activity
11 | [H]/N=C(/N)N[C@H]1[C@H](O)[C@@H](O)[C@H](O[C@@H]2O[C@@H](C)[C@](O)(C=O)[C@H]2O[C@@H]2O[C@@H](CO)[C@H](O)[C@@H](O)[C@@H]2NC)[C@@H](N/C(N)=N\[H])[C@@H]1O [Streptomycin, reference compound] | 0.25 | 64 (≈ 110 µM) | – | – | – | – | activity in words [1]: poor activity
12 | CCCCCCCC(=O)c1ccccc1 [Octanophenone] | – | – | – | – | – | – | CHIIAM [3, 6]: 49.4
13 | Cc1ccc(C(C)C)c(OC(=O)CCN2CCN(c3cc4c(cc3F)c(=O)c(C(=O)O)cn4C3CC3)CC2)c1 [Compound 11] | 1 | 1 (≈ 1.87 µM) | 44.44 | 113.95 | 4.52 | 2.42 | –
14 | CC1CCC(C(C)C)C(OC(=O)CN2CCN(c3cc4c(cc3F)c(=O)c(C(=O)O)cn4C3CC3)CC2)C1 (stereo not drawn) [Compound 2] | 0.5 | 2 (≈ 3.79 µM) | 46.88 | 127.44 | 5.22 | 2.53 | –
15 | CC1CCC(C(C)C)C(OC(=O)CCN2CCN(c3cc4c(cc3F)c(=O)c(C(=O)O)cn4C3CC3)CC2)C1 (stereo not drawn) [Compound 3] | 2 | 2 (≈ 3.69 µM) | 49.56 | 129.99 | 5.36 | 2.65 | –
16 | Cc1ccc(C(C)C)c(OC(=O)CCCN2CCN(c3cc4c(cc3F)c(=O)c(C(=O)O)cn4C3CC3)CC2)c1 [Compound 12] | 0.5 | 0.5 (≈ 0.91 µM) | 45.75 | 115.60 | 4.6 | 2.48 | –
17 | CC1CCC(C(C)C)C(OC(=O)CCCCOC(=O)c2cn(C3CC3)c3cc(N4CCN(CCCCC(=O)OC5CC(C)CCC5C(C)C)CC4)c(F)cc3c2=O)C1 (stereo not drawn) [Compound 7] | – | 256 (≈ 317 µM) | 55.54 | 170.54 | 7.49 | 2.92 | MIC (M. tuberculosis H37Rv; […]): 256 µg/mL (≈ 317 µM); activity in words (M. tuberculosis H37Rv): not active
18 | NNC(=O)c1ccncc1 [Isoniazid, reference compound] | 0.0625 | 0.5 (≈ 3.65 µM) | – | – | – | – | –
19 | CC(=O)Nc1ccccc1 [Acetanilidine] | – | – | – | – | – | – | CHIIAM [3, 6]: 11.5
20 | CC(=O)Nc1ccc(O)cc1 [Paracetamol] | – | – | – | – | – | – | CHIIAM [3, 6]: 2.9
21 | CC(=O)c1ccccc1 [Acetophenone] | – | – | – | – | – | – | CHIIAM [3, 6]: 17.2; CHIC18 [4, 7]: 65,1
22 | CC1CCC(C(C)C)C(OC(=O)CCCN2CCN(c3cc4c(cc3F)c(=O)c(C(=O)O)cn4C3CC3)CC2)C1 (stereo not drawn) [Compound 4] | 0.5 | 0.5 (≈ 0.9 µM) | 53.32 | 132.45 | 5.49 | 2.82 | –
23 | CC1CCC(C(C)C)C(OCC(=O)N2CCN(c3cc4c(cc3F)c(=O)c(C(=O)O)cn4C3CC3)CC2)C1 (stereo not drawn) [Compound 1] | 32 | 256 (≈ 485 µM) | 45.54 | 112.24 | 4.43 | 2.47 | activity in words (M. tuberculosis H37Rv): not active
24 | Cc1ccc(C(C)C)c(OCC(=O)N2CCN(c3cc4c(cc3F)c(=O)c(C(=O)O)cn4C3CC3)CC2)c1 [Compound 9] | 256 | 256 (≈ 491 µM) | 43.58 | 129.41 | 5.33 | 2.38 | activity in words (M. tuberculosis H37Rv): not active
25 | CCCCCC(=O)c1ccccc1 [Hexanophenone] | – | – | – | – | – | – | CHIIAM [3, 6]: 41.8
26 | CC1CCC(C(C)C)C(OC(=O)CCCCCOC(=O)c2cn(C3CC3)c3cc(N4CCN(CCCCCC(=O)OC5CC(C)CCC5C(C)C)CC4)c(F)cc3c2=O)C1 (stereo not drawn) [Compound 8] | 4 | 4 (≈ 4.78 µM) | 57.85 | 179.66 | 7.97 | 3.02 | –
27 | Cn1c(=O)c2[nH]cnc2n(C)c1=O [Theophylline] | – | – | – | – | – | – | CHIC18 [4, 7]: 18,4
28 | CC1CCC(C(C)C)C(OC(=O)CCCCN2CCN(c3cc4c(cc3F)c(=O)c(C(=O)O)cn4C3CC3)CC2)C1 (stereo not drawn) [Compound 5] | 4 | 4 (≈ 7.02 µM) | 48.95 | 134.85 | 5.61 | 2.62 | –
29 | Cc1ccc(C(C)C)c(OC(=O)CCCCN2CCN(c3cc4c(cc3F)c(=O)c(C(=O)O)cn4C3CC3)CC2)c1 [Compound 13] | 2 | 2 (≈ 3.55 µM) | 46.96 | 117.28 | 4.69 | 2.53 | –
